Experimental data reported in US10941158B2, “Pyrazole ACC inhibitors and uses thereof” (Gilead Apollo, LLC, priority 2015, dated 2021).
≈ marks a conversion by molar mass, not a printed value. Read-outs that look alike come from different tables or passages of the source.

Columns and labels:
human (hACC2) ACC2 = human (hACC2) ACC2 (Homo sapiens, UniProt O00763); assay: In vitro Acetyl-CoA Carboxylase (ACC) inhibition assay (ADP-Glo), hACC2; assay type: biochemical
Method: The detailed procedure is as follows. […] 10 μL ADP glo reagent was added. […] 20 μL kinase detection reagent was added.
“NA” stands for “not assayed.”

C. albicans ATCC 90028 = assay: Anti-Fungal (Candida) Activity Assay, broth microtiter MIC; assay type: cell-based; conditions: read-out: MIC C. albicans ATCC 90028
Summary of the method: (§1)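 Following CLSI M27-A3 broth microdilution, direct colony suspensions in RPMI 1640+MOPS were challenged with compounds. MICs were read visually against the growth control after 48 h.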

C. krusei ATCC 6258 = assay: as above; assay type: cell-based; conditions: Pichia kudriavzevii, read-out: MIC C. krusei ATCC 6258
Summary of the method: as §1

[1] = tested on: C. parapsilosis ATCC 22019; assay: as above; assay type: cell-based; conditions: Lodderomyces parapsilosis, read-out: MIC C. parapsilosis ATCC 22019
Summary of the method: as §1

Botrtyis cinerea (Bc) = assay: Growth inhibition assay of fungal pathogens; assay type: cell-based; conditions: 48 h, read-out: Concentration at 90% Inhibition Bc
Summary of the method: (§2)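 Percent growth inhibition was derived from 48 h OD600 and visual scores relative to 2% DMSO, with blank background subtraction. Fungi were grown from spores in 17% V8 liquid medium, R. solani from 1.5 mm plugs in ¼ PDB, with compound at final 50/10/2 or 2/0.4/0.08 ppm.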

[2] = tested on: Collectotrichum graminicola (Cg); assay: Growth inhibition assay of fungal pathogens; assay type: cell-based; conditions: 48 h, read-out: Concentration at 90% Inhibition Cg
Summary of the method: (§3)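 Liquid-culture assay in which test compounds are applied at three final concentrations (50, 10, 2 ppm or 2, 0.4, 0.08 ppm). Inoculum levels follow 48 h growth curves for each fungus. Growth is monitored by OD600 and by eye, and the 48 h values give % inhibition against DMSO.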

Diplodia maydis (Dm) = assay: Growth inhibition assay of fungal pathogens; assay type: cell-based; conditions: Stenocarpella maydis, 48 h, read-out: Concentration at 90% Inhibition Dm
Summary of the method: as §2

[3] = tested on: Fusarium moniliforme (Fm); assay: Growth inhibition assay of fungal pathogens; assay type: cell-based; conditions: Fusarium verticillioides, 48 h, read-out: Concentration at 90% Inhibition Fm
Summary of the method: as §2

[4] = tested on: Fusarium virguliforme (Fv); assay: Growth inhibition assay of fungal pathogens; assay type: cell-based; conditions: 48 h
Summary of the method: as §3

[5] = tested on: Phytophthora capsici (Pc); assay: Growth inhibition assay of fungal pathogens; assay type: cell-based; conditions: for IC90: Phytophthora capsici, read-out: Concentration at 90% Inhibition Pc
Summary of the method: as §3

Rhizoctonia solani (Rs) = assay: Growth inhibition assay of fungal pathogens; assay type: cell-based; conditions: 48 h, read-out: Concentration at 90% Inhibition Rs
Summary of the method: as §2

Septoria tritici (St) = assay: Growth inhibition assay of fungal pathogens; assay type: cell-based; conditions: for IC90: Zymoseptoria tritici, read-out: Concentration at 90% Inhibition St
Summary of the method: as §3

fungal (fACC2) ACC2 = fungal (fACC2) ACC2 (UniProt Q00955); conditions: read-out: fACC2 IC50; fungal ACC2, ADP-Glo
Chain of fungal (fACC2) ACC2 (Q00955 whole entry): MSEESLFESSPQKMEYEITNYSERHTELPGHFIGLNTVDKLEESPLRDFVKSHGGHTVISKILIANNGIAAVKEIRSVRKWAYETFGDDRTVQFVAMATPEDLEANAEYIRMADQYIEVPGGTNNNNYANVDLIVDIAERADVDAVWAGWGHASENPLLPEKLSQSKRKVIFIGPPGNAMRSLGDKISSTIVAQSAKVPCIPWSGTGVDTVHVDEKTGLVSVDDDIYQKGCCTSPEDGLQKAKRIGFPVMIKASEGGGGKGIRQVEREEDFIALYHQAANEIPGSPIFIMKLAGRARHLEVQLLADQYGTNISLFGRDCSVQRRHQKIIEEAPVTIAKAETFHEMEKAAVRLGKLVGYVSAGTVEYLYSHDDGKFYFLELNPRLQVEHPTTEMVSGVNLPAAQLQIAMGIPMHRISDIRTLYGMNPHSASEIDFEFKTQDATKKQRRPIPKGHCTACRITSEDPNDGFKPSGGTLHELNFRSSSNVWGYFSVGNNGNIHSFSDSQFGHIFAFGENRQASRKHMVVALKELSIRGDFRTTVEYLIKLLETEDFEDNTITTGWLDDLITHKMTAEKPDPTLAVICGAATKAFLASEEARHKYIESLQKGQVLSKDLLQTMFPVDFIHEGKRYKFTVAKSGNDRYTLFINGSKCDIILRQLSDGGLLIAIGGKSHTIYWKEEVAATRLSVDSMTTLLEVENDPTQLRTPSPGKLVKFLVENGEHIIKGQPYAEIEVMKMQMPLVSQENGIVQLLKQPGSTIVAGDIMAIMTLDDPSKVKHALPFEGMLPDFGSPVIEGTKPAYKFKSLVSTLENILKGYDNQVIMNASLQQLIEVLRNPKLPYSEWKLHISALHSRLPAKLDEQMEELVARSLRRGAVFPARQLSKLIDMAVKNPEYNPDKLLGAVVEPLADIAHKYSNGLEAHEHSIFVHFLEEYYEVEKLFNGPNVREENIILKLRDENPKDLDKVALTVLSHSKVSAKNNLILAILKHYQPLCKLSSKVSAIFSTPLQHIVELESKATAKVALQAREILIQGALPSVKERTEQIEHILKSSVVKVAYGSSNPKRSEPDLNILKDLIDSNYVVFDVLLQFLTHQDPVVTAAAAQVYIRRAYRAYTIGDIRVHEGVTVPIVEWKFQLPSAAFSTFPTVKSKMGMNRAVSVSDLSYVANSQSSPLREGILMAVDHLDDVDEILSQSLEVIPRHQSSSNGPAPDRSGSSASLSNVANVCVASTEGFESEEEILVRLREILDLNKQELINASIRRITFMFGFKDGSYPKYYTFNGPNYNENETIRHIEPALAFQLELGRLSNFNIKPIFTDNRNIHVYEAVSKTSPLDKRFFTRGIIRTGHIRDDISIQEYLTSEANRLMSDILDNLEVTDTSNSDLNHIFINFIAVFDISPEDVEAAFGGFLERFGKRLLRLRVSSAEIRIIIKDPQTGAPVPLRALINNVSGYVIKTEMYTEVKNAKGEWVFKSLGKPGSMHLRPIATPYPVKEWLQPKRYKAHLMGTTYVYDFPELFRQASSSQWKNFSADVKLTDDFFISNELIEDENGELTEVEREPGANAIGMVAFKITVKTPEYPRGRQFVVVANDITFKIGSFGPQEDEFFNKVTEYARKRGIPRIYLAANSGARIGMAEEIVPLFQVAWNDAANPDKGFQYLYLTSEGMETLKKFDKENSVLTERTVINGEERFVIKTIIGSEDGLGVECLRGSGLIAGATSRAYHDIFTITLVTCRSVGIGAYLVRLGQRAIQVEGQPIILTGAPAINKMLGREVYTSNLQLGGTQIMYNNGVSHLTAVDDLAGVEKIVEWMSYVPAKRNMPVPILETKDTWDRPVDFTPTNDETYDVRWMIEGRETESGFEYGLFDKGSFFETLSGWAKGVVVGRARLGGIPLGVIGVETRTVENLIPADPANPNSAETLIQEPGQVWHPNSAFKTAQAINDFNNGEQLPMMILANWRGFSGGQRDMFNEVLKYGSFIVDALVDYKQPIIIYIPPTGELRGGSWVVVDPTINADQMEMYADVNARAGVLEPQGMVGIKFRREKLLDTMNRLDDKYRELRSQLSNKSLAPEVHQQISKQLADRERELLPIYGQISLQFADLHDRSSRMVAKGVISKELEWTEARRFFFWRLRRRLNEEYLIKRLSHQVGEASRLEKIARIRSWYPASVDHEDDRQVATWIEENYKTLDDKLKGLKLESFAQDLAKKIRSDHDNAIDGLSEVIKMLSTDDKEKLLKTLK

[6] = Table 4a, 48 hours, read-out: Concentration at 90% Inhibition Fv
[7] = Table 4b, 48 hours, read-out: Concentration at 90% Inhibition Fv

Chain of human (hACC2) ACC2 (O00763 whole entry): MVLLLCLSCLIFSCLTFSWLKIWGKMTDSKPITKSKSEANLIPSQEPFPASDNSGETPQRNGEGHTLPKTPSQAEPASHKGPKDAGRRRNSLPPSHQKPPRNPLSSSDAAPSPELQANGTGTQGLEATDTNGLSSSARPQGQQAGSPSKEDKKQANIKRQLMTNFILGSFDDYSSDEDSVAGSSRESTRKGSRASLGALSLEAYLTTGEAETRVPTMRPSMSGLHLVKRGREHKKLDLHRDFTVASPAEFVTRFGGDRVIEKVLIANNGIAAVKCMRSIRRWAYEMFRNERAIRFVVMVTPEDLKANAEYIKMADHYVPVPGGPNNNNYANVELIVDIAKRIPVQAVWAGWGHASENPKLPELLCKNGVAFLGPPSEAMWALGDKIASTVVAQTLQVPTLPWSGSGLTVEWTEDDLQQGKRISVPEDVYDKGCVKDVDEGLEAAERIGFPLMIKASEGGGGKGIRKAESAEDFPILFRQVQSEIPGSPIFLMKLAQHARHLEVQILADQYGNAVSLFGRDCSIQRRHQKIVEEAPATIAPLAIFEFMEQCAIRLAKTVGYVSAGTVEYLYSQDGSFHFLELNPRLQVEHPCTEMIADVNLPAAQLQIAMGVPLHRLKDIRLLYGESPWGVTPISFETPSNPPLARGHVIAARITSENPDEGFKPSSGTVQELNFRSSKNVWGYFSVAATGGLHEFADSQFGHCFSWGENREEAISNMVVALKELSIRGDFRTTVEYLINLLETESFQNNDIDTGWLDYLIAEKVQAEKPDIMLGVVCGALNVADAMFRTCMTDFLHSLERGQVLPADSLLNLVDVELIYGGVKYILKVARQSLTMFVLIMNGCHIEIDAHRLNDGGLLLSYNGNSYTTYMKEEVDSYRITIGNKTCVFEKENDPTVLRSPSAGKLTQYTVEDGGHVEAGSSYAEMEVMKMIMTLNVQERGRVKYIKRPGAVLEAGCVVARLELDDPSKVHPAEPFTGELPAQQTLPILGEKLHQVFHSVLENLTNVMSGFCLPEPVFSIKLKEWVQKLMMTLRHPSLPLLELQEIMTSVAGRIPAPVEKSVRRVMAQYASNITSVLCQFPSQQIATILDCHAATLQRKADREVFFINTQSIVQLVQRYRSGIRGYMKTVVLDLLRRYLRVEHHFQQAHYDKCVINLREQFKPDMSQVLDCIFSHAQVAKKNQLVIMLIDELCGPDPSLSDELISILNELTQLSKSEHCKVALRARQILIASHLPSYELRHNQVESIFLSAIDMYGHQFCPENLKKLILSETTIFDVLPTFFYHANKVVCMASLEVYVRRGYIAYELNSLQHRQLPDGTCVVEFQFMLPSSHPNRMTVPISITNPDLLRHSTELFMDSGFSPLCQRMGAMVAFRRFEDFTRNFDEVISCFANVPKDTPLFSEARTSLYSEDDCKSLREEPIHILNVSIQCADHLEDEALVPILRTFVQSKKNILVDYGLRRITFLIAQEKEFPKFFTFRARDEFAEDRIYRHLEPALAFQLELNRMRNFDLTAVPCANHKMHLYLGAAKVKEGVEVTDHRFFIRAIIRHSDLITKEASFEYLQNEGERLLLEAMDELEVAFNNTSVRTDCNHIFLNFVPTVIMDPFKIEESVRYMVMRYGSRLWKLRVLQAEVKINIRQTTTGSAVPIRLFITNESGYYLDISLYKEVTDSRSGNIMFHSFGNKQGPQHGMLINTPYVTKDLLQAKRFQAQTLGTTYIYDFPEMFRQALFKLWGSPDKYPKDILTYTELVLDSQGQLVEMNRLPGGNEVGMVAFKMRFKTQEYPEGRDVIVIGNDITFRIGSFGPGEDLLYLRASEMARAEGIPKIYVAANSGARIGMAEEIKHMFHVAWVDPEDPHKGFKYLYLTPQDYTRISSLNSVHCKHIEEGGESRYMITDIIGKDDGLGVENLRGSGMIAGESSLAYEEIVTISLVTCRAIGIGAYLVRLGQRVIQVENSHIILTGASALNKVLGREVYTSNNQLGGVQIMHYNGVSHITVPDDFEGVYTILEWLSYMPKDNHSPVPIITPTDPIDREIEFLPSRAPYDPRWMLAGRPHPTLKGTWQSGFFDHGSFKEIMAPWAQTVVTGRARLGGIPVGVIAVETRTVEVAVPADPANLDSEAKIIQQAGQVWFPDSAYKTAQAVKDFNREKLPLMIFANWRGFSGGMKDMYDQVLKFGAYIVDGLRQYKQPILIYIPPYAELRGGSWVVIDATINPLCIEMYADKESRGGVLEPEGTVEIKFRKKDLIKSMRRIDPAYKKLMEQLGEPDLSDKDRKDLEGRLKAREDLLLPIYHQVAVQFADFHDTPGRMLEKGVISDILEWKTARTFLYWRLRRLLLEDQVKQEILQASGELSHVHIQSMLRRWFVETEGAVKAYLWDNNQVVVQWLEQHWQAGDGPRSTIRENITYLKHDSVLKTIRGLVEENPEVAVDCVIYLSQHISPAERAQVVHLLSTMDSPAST

Row | SMILES | IC50 (human (hACC2) ACC2) [nM] | IC90 (Botrtyis cinerea (Bc); Table 4a) [µg/mL] | IC90 (Botrtyis cinerea (Bc); Table 4b) [µg/mL] | IC90 ([2]; Table 4a) [µg/mL] | IC90 ([2]; Table 4b) [µg/mL] | IC90 (Diplodia maydis (Dm); Table 4a) [µg/mL] | IC90 (Diplodia maydis (Dm); Table 4b) [µg/mL] | IC90 ([3]; Table 4a, 48 hours) [µg/mL] | IC90 ([3]; Table 4b, 48 hours) [µg/mL] | IC90 [4, 6] [µg/mL] | IC90 [4, 7] [µg/mL] | IC90 ([5]; Table 4a, 48 hours) [µg/mL] | Concentration at 90% Inhibition Pc ([5]; Table 4b, 48 hours) | IC90 (Rhizoctonia solani (Rs); Table 4a) [µg/mL] | IC90 (Rhizoctonia solani (Rs); Table 4b) [µg/mL] | Concentration at 90% Inhibition St (Septoria tritici (St); Table 4b, 48 hours) | IC90 (Septoria tritici (St); Table 4a, 48 hours) [µg/mL] | IC50 (fungal (fACC2) ACC2) [nM] | also measured
1 | COc1ccc(F)cc1[C@H](Cn1c(=O)n(C(C)(C)C(=O)N2CCCC2)c(=O)c2c(C)c(-n3cccn3)sc21)OC1CCC(=O)CC1 [Compound I-27, (R)-1-(2-(5-fluoro-2-methoxyphenyl)-2-((4-oxocyclohexyl)oxy)ethyl)-5-methyl-3-(2-methyl-1-oxo-1-(pyrrolidin-1-yl)propan-2-yl)-6-(1H-pyrazol-1-yl)thieno[2,3-d]pyrimidine-2,4(1H,3H)-dione] | 10 to 40 | 2 (≈ 3.07 µM) | 2 (≈ 3.07 µM) | 10 (≈ 15.3 µM) | 2 (≈ 3.07 µM) | > 50 | 10 (≈ 15.3 µM) | 0.4 (≈ 0.614 µM) | 0.4 (≈ 0.614 µM) | 10 (≈ 15.3 µM) | 2 (≈ 3.07 µM) | > 50 | D (“D” provided a compound concentration of >50 ppm at 90% inhibition of fungal pathogens) | 2 (≈ 3.07 µM) | 2 (≈ 3.07 µM) | D (“D” provided a compound concentration of >50 ppm at 90% inhibition of fungal pathogens) | > 50 | – | MIC (C. albicans ATCC 90028; ATCC90028, 3 replicates, MIC recorded at 48 h): 1.1 to 2 µg/mL (≈ 1.69 to 3.07 µM); MIC (C. krusei ATCC 6258; ATCC6258, 3 replicates, MIC recorded at 48 h): 1.1 to 2 µg/mL (≈ 1.69 to 3.07 µM); MIC ([1]; ATCC22019, 3 replicates, MIC recorded at 48 h): 1.1 to 2 µg/mL (≈ 1.69 to 3.07 µM)
2 | COc1ccc(F)cc1[C@H](Cn1c(=O)n(C(C)(C)C(=O)NC(C)C)c(=O)c2c(C)c(-n3cccn3)sc21)OCCO [Compound I-35, (R)-2-(1-(2-(5-fluoro-2-methoxyphenyl)-2-(2-hydroxy-ethoxy)ethyl)-5-methyl-2,4-dioxo-6-(1H-pyrazol-1-yl)-1,4-dihydrothieno[2,3-d]pyrimidin-3(2H)-yl)-N-isopropyl-2-methylpropanamide] | 10 to 40 | 2 (≈ 3.4 µM) | 2 (≈ 3.4 µM) | 2 (≈ 3.4 µM) | 2 (≈ 3.4 µM) | > 50 | 10 (≈ 17 µM) | 0.4 (≈ 0.681 µM) | 0.4 (≈ 0.681 µM) | 2 (≈ 3.4 µM) | 2 (≈ 3.4 µM) | > 50 | D (“D” provided a compound concentration of >50 ppm at 90% inhibition of fungal pathogens) | 2 (≈ 3.4 µM) | 2 (≈ 3.4 µM) | D (“D” provided a compound concentration of >50 ppm at 90% inhibition of fungal pathogens) | > 50 | 0.6 to 3 | –
3 | COCCO[C@@H](Cn1c(=O)n(C(C)(C)C(=O)N2CCCC2)c(=O)c2c(C)c(-n3cccn3)sc21)c1cc(F)ccc1OC [Compound I-44, (R)-1-(2-(5-fluoro-2-methoxyphenyl)-2-(2-methoxy-ethoxy)ethyl)-5-methyl-3-(2-methyl-1-oxo-1-(pyrrolidin-1-yl)propan-2-yl)-6-(1H-pyrazol-1-yl)thieno[2,3-d]pyrimidine-2,4(1H,3H)-dione] | > 40 | – | > 50 | – | > 50 | – | > 50 | – | 10 (≈ 16.3 µM) | – | 10 (≈ 16.3 µM) | – | – | – | > 50 | – | – | 3 to 10 | IC90 ([5]; Table 4b, 48 hours): > 50 µg/mL; IC90 (Septoria tritici (St); Table 4b, 48 hours): > 50 µg/mL
4 | COc1ccc(F)cc1[C@@H](O)Cn1c(=O)n(C(C)(C)C(=O)NC(C)C)c(=O)c2c(C)c(-n3cccn3)sc21 [Compound I-86, (R)-2-(1-(2-(5-fluoro-2-methoxyphenyl)-2-hydroxyethyl)-5-methyl-2,4-dioxo-6-(1H-pyrazol-1-yl)-1,4-dihydrothieno[2,3-d]pyrimidin-3(2H)-yl)-N-isopropyl-2-methylpropanamide] | 3 to 10 | – | 2 (≈ 3.68 µM) | – | 2 (≈ 3.68 µM) | – | 10 (≈ 18.4 µM) | – | – | – | – | – | – | – | 0.4 (≈ 0.736 µM) | – | – | – | MIC (C. albicans ATCC 90028; ATCC90028, 48 h): 1.1 to 2 µg/mL (≈ 2.02 to 3.68 µM); MIC (C. krusei ATCC 6258; ATCC6258, 48 h): 1.1 to 2 µg/mL (≈ 2.02 to 3.68 µM); MIC ([1]; ATCC22019, 48 h): 0.25 to 1 µg/mL (≈ 0.46 to 1.84 µM); IC90 [3]: 0.4 µg/mL (≈ 0.736 µM); IC90 ([4]; read-out: Concentration at 90% Inhibition Fv, Table 4b, 48 hours): 0.4 µg/mL (≈ 0.736 µM); IC90 ([5]; 48 h, Table 4b): > 50 µg/mL; IC90 (Septoria tritici (St); 48 h, Table 4b): > 50 µg/mL
